According to US8415469B2, “Compounds and methods for kinase modulation, and indications therefor” (Plexxikon Inc., priority 2005, dated 2013):
pIC50: −log10 of the molar value.

What was measured:
Assay type in all cases: biochemical
B-Raf V600E = biological target: T1, B-Raf V600E (Homo sapiens, UniProt P15056, V600E); test: AlphaScreen kinase assay, B-Raf V600E; conditions: read-out: IC50, activity toward kinase B-Raf V600E
T1 construct: P4254. pFastBacBD-CDC37 BRAF D437-K722-X, V600E; His6 with pFastBac HT leader (TEV site) (N); made in house; host or cells: Sf9 (baculovirus; chaperone CDC37 co-expressed)

FGFR1 = biological target: T2, FGFR1 (Homo sapiens, UniProt P11362, C488A/C584S); test: AlphaScreen kinase assay, FGFR1; conditions: read-out: IC50, activity toward kinase FGFR
T2 construct: P1351.pET N6 BI-PTP FGFR A458-E765-X C488A, C584S; made in house; host or cells: E. coli (PTP1B co-expressed)

B-Raf = biological target: T3, B-Raf (Homo sapiens, UniProt P15056); test: AlphaScreen kinase assay, B-Raf; conditions: read-out: IC50, activity toward kinase B-Raf
T3 construct: purchased Upstate Biotechnology

Ret = biological target: T4, Ret (Homo sapiens, UniProt P07949); test: AlphaScreen kinase assay, Ret; conditions: read-out: IC50, activity toward kinase Ret
T4 construct: P1378.pET-SF BI-PTP RET H661-R1012 HIS; made in house
T4 sequence (P07949 with tags, fused parts or gaps): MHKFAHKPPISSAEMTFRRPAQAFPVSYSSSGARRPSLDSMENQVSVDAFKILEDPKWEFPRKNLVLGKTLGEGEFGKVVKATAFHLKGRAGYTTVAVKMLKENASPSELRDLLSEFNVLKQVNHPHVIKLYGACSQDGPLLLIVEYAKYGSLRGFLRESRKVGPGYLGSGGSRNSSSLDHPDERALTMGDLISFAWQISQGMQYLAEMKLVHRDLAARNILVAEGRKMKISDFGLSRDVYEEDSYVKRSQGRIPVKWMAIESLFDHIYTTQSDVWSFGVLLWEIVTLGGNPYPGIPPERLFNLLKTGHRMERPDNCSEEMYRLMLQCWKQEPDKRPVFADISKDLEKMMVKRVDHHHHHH

Fms = biological target: T5, Fms (Homo sapiens, UniProt P07333); test: AlphaScreen kinase assay, Fms; conditions: read-out: IC50, activity toward kinase Fms
T5 construct: purchased Upstate Biotechnology

Kit = biological target: T6, Kit (Homo sapiens, UniProt P10721); test: AlphaScreen kinase assay, Kit; conditions: read-out: IC50, activity toward kinase Kit
T6 construct: P1332.N6 BI PTP KIT M552-K948-X COD; His6 (N); made in house; host or cells: E. coli (PTP1B co-expressed)

Kdr = biological target: T7, Kdr (Homo sapiens, UniProt P35968); test: Z'-Lyte FRET kinase assay (Invitrogen), Kdr; conditions: read-out: IC50, activity toward kinase Kdr
T7 construct: purchased Invitrogen (assay run by Invitrogen)

Btk = biological target: T8, Btk (Homo sapiens, UniProt Q06187); test: Z'-Lyte FRET kinase assay (Invitrogen), Btk; conditions: read-out: IC50, activity toward kinase Btk
T8 construct: purchased Invitrogen (assay run by Invitrogen)

Measured: pIC50

T1 sequence (P15056 with tags, fused parts or gaps V600E): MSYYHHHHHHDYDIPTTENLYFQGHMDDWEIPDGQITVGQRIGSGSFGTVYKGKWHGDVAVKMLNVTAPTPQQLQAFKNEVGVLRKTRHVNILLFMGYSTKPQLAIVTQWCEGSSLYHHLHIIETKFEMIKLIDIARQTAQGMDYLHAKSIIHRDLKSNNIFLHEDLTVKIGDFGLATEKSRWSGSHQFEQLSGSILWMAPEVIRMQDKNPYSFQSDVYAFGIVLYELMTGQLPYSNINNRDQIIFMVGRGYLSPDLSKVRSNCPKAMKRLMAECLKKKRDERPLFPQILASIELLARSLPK
T3 sequence (P15056 whole entry): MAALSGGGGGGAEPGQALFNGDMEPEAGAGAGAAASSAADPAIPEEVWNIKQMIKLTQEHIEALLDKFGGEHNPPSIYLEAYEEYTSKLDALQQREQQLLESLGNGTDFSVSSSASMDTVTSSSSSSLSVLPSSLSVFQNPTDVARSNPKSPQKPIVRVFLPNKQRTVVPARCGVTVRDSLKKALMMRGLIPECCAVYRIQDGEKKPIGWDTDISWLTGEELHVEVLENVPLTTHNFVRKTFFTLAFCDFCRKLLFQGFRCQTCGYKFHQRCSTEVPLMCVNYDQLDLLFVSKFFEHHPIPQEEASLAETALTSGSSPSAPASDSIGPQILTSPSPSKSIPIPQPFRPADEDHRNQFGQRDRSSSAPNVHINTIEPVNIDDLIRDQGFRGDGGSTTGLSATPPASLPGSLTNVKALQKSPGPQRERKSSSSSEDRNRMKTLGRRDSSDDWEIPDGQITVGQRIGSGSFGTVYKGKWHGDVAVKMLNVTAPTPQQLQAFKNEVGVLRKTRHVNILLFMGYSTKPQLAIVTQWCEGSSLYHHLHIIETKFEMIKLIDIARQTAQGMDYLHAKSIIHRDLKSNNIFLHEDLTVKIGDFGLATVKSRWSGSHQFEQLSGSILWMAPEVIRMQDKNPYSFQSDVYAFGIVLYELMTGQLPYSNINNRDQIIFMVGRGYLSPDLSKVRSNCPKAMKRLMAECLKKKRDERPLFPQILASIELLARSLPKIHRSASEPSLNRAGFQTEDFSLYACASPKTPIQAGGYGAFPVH
T8 sequence (Q06187 whole entry): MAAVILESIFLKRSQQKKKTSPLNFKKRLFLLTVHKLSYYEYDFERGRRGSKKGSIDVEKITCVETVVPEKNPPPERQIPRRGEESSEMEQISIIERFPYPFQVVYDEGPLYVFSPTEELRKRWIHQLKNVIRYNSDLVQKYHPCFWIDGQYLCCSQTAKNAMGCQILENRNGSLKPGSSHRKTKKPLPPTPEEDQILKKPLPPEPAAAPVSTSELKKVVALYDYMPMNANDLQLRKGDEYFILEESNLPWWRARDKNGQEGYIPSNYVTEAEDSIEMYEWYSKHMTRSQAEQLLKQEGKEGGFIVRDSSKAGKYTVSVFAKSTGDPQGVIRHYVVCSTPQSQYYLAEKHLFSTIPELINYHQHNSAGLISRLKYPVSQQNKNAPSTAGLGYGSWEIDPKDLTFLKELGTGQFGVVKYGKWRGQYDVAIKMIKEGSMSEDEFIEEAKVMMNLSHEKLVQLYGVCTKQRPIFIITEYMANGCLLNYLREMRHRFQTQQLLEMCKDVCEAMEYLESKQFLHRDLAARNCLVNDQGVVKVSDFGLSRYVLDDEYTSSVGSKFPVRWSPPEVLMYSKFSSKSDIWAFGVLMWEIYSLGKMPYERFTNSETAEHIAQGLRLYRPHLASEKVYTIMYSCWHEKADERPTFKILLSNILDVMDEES
T7 sequence (P35968 20-1356): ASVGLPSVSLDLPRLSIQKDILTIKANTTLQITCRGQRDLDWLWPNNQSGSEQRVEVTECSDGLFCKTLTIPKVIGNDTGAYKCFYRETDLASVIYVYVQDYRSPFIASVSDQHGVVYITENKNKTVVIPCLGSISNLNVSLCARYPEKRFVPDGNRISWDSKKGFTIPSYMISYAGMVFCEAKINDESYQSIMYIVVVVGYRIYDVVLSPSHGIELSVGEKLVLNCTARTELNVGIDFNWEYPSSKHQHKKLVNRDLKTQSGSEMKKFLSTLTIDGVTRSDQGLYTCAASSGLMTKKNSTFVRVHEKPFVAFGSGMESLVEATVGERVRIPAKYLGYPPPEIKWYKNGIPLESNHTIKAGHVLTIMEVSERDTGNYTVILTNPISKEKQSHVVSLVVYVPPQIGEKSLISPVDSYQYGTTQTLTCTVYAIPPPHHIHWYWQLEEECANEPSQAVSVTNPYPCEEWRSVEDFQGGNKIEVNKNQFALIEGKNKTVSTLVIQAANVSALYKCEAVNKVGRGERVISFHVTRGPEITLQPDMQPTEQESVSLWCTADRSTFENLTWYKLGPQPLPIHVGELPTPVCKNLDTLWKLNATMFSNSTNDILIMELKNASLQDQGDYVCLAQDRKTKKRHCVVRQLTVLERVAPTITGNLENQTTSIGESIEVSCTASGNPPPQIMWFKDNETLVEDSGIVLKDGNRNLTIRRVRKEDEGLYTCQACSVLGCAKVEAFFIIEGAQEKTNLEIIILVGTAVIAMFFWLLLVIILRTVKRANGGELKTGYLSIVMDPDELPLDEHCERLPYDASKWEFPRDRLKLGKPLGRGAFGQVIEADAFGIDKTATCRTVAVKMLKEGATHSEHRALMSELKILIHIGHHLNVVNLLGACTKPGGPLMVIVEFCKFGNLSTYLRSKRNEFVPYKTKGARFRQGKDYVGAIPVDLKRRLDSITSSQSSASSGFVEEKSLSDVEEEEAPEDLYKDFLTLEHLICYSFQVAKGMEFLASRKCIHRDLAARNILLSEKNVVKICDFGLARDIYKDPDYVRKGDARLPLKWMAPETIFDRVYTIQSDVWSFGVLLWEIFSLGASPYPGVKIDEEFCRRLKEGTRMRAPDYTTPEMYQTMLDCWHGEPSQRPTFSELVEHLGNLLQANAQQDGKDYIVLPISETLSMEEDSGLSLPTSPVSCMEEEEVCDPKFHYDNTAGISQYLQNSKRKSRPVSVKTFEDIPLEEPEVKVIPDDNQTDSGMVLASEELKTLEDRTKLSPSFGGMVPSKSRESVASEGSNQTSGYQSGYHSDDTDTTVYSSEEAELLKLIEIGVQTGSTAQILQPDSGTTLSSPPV
T6 sequence (P10721 with tags, fused parts or gaps): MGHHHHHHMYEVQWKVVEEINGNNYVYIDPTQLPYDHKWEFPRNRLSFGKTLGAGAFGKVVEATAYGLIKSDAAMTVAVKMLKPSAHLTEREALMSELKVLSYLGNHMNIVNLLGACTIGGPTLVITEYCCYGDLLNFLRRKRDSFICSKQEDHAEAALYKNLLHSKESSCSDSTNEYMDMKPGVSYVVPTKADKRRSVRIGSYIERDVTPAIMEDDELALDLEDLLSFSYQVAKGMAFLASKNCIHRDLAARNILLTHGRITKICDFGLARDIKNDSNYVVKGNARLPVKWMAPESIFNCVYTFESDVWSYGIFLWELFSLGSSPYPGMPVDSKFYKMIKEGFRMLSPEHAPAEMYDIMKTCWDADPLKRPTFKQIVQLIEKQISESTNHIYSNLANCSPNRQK
T2 sequence (P11362 458-765 C488A/C584S): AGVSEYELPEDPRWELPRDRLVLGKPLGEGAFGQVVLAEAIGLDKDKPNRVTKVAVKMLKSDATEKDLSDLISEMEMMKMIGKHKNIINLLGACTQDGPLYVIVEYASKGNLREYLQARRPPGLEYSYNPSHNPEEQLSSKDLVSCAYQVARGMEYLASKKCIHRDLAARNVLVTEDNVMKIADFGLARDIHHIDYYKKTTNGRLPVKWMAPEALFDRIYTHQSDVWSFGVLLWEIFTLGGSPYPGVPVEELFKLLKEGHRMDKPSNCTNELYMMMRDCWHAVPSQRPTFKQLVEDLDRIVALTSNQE
T5 sequence (P07333 20-972): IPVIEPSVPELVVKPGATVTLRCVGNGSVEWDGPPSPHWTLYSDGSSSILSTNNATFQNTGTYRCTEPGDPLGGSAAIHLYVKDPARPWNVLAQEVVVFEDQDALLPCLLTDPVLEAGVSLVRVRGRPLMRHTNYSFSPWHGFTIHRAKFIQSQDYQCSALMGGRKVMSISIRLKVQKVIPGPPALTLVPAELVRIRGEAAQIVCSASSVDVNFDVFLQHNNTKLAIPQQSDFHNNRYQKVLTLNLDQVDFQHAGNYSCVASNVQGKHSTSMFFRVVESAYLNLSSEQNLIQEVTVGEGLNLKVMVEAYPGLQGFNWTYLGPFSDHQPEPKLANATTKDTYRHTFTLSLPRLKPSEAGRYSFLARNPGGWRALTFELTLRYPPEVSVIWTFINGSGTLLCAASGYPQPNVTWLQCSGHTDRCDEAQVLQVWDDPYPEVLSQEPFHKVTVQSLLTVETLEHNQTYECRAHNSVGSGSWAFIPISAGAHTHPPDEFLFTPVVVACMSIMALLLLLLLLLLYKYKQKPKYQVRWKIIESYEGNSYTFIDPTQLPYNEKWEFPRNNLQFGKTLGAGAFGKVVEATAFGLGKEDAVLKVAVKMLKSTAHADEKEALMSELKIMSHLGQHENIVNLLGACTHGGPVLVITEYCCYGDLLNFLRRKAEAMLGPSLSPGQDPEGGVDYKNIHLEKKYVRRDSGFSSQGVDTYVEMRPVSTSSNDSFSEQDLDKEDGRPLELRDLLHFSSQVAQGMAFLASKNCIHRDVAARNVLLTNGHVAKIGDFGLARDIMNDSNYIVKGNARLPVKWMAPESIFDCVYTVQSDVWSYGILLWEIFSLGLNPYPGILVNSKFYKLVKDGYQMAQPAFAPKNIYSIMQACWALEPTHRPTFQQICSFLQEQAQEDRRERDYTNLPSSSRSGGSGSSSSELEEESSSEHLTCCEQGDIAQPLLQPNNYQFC

CS(=O)(=O)Nc1cccc(-c2cnc3[nH]cc(C(=O)c4cccc(O)c4F)c3c2)c1 [Compound P-0038, N-{3-[3-(2-Fluoro-3-hydroxy-benzoyl)-1H-pyrrolo[2,3-b]pyridin-5-yl]-phenyl}-methanesulfonamide]
not listed: Kdr | Btk
≥ 5.00: all other assays above

CCCC(=O)Nc1ccc(F)c(Cc2c[nH]c3ncc(-c4cccnc4)cc23)c1F [Compound P-1280]
not listed: Ret | Btk
≥ 5.00: all other assays above

CS(=O)(=O)c1cccc(-c2cnc3[nH]cc(C(=O)c4cccc(O)c4F)c3c2)c1 [Compound P-0026, (2-Fluoro-3-hydroxy-phenyl)-[5-(3-methanesulfonylphenyl)1H-pyrrolo[2,3-b]pyridin-3-yl]-methanone]
not listed: Kdr
≥ 5.00: all other assays above

Nc1cccc(-c2cnc3[nH]cc(C(=O)c4cc(O)ccc4F)c3c2)c1 [Compound P-0002]
not listed: Kdr | Btk
≥ 5.00: all other assays above

O=C(c1cccc(O)c1)c1c[nH]c2ncc(-c3cccs3)cc12 [Compound P-0196]
not listed: Btk
≥ 5.00: all other assays above

Cc1ccc(S(=O)(=O)NCc2c[nH]c3ncccc23)cc1 [Compound P-0058]
≥ 5.00: FGFR1 | Ret

CS(=O)(=O)c1cccc(-c2cnc3[nH]cc(C(=O)c4cc(O)ccc4F)c3c2)c1 [Compound P-0008, (2-Fluoro-5-hydroxy-phenyl)-[5-(3-methanesulfonyl-phenyl)-1H-pyrrolo[2,3-b]pyridin-3-yl]-methanone]
not listed: Kdr | Btk
≥ 5.00: all other assays above

Oc1ccc(F)c(Cc2c[nH]c3ncc(-c4cccnc4)cc23)c1F [Compound P-0078, 2,4-difluoro-3-(5-pyridin-3-yl-1H-pyrrolo[2,3-b]pyridin-3-ylmethyl)-phenol]
not listed: Btk
≥ 5.00: all other assays above

CC(=O)Nc1cccc(-c2cnc3[nH]cc(C(=O)c4cc(O)ccc4F)c3c2)c1 [Compound P-0001]
not listed: Btk
≥ 5.00: all other assays above

Fc1cc(F)cc(-c2ccnc3[nH]cc(Sc4ccccn4)c23)c1 [Compound P-0106]
≥ 5.00: Kdr

O=C(c1cccc(O)c1)c1c[nH]c2nccc(-c3cc(F)cc(F)c3)c12 [Compound P-0039]
≥ 5.00: B-Raf V600E | FGFR1 | Ret | Kit | Kdr

COc1cc(OC)cc(C(=O)c2c[nH]c3ncc(-c4cccc(NS(C)(=O)=O)c4)cc23)c1 [Compound P-1426, N-{3-[3-(3,5-Dimethoxy-benzoyl)-1H-pyrrolo[2,3-b]pyridin-5-yl]-phenyl}-methanesulfonamide]
not listed: B-Raf | Ret
≥ 5.00: all other assays above

Nc1cccc(-c2cnc3[nH]cc(C(=O)c4cccc(O)c4F)c3c2)c1 [Compound P-0004, [5-(3-amino-phenyl)-1H-pyrrolo[2,3-b]pyridin-3-yl]-(2-fluoro-3-hydroxy-phenyl)methanone]
not listed: Kdr | Btk
≥ 5.00: all other assays above

O=C(c1cccc(O)c1F)c1c[nH]c2ncc(-c3cccs3)cc12 [Compound P-0521, (2-fluoro-3-hydroxy-phenyl)-(5-thiophen-2-yl-1H-pyrrolo[2,3-b]pyridin-3-yl)-methanone]
not listed: Fms | Btk
≥ 5.00: all other assays above

O=C(c1cc(O)ccc1F)c1c[nH]c2ncc(-c3cccs3)cc12 [Compound P-0032]
not listed: Btk
≥ 5.00: all other assays above

COc1cccc(C(=O)c2c[nH]c3ncc(-c4cccc(NC(C)=O)c4)cc23)c1F [Compound P-1336, N-{3-[3-(2-Fluoro-3-methoxy-benzoyl)-1H-pyrrolo[2,3-b]pyridin-5-yl]-phenyl}-acetamide]
not listed: Ret | Kdr
≥ 5.00: all other assays above

CC(=O)Nc1cccc(-c2cnc3[nH]cc(C(=O)c4cccc(O)c4F)c3c2)c1 [Compound P-0035, N-{3-[3-(2-Fluoro-3-hydroxy-benzoyl)-1H-pyrrolo[2,3-b]pyridin-5-yl]-phenyl}-acetamide]
not listed: Kdr | Btk
≥ 5.00: all other assays above

OCCOc1ccc(F)c(Cc2c[nH]c3ncc(-c4cccnc4)cc23)c1F [Compound P-1394, 2-[2,4-Difluoro-3-(5-pyridin-3-yl-1H-pyrrolo[2,3-b]pyridin-3-ylmethyl)-phenoxy]-ethanol]
≥ 5.00: B-Raf V600E | FGFR1 | Fms | Kit | Kdr

Cn1cc(C(F)(F)F)c(-c2ccc(S(=O)(=O)NCc3c[nH]c4ncccc34)s2)n1 [Compound P-0041]
not listed: Fms
≥ 5.00: all other assays above

Nc1cccc(-c2cnc3[nH]cc(C(=O)c4cccc(O)c4)c3c2)c1 [Compound P-0003]
not listed: Btk
≥ 5.00: all other assays above

O=C(Nc1ccc(Cc2c[nH]c3ncccc23)cc1)Nc1cccc(C(F)(F)F)c1 [Compound P-0262, 1-[4-(1H-Pyrrolo[2,3-b]pyridin-3-ylmethyl)-phenyl]-3-(3-trifluoromethyl-phenyl)-urea]
not listed: Btk
≥ 5.00: all other assays above

CCCS(=O)(=O)Nc1ccc(F)c(C(=O)c2c[nH]c3ncc(OC)cc23)c1F [Compound P-0806, Propane-1-sulfonic acid [2,4-difluoro-3-(5-methoxy-1H-pyrrolo[2,3-b]pyridine-3-carbonyl)-phenyl]-amide]
not listed: Ret
≥ 5.00: all other assays above

NC(=O)c1cccc(-c2cnc3[nH]cc(C(=O)c4cccc(O)c4F)c3c2)c1 [Compound P-0034, 3-[3-(2-Fluoro-3-hydroxy-benzoyl)-1H-pyrrolo[2,3-b]pyridin-5-yl]benzamide]
not listed: Kdr | Btk
≥ 5.00: all other assays above

Cc1c(O)cccc1C(=O)c1c[nH]c2ncc(-c3cccs3)cc12 [Compound P-0114, (3-Hydroxy-2-methyl-phenyl)-(5-thiophen-2-yl-1H-pyrrolo[2,3b]pyridin-3-yl)-methanone]
not listed: Btk
≥ 5.00: all other assays above

CCCCNC(=O)Nc1ccc(F)c(C(=O)c2c[nH]c3ncc(-c4cccnc4)cc23)c1F [Compound P-1318, 1-Butyl-3-[2,4-difluoro-3-(5-pyridin-3-yl-1H-pyrrolo[2,3-b]pyridine-3-carbonyl)-phenyl]-urea]
not listed: Ret | Btk
≥ 5.00: all other assays above
